Measured values: patent EP0041644B1 (priority 1980, dated 1981)
Marks after values point to notes of the source that are not given here.

Key:
B16 Melanoma [1] = assay: B16 Melanoma - Test 1 (ip tumor brei); format: in vivo, mice; settings: for Effect MST % T/C / MST Days: QD 1→9, vehicle CMC + H2O
B16 Melanoma [2] = assay: B16 Melanoma - Test 3 (sc trocar fragments); format: in vivo, mice; settings: for Effect MST %TC / MST Days: qd 1→9
L1210 Leukemia [3] = assay: L1210 Leukemia - Test 1 (survival of tumor-bearing mice); format: in vivo; settings: d. 1 only
Source text: This evaluation of the ammonium salt finds the drug to be active against L1210 (ip) leukemia when administered ip one day post-implant of 10^6 L1210 cells (maximum T/C was 164%). […] The vehicle for the ammonium salt was water.

B16 Melanoma [4] = assay: B16 Melanoma - Test 2 (ip tumor brei); format: in vivo, mice; settings: QD +9
L1210 Leukemia [5] = assay: L1210 Leukemia - Test 3 (vehicle comparison); format: in vivo, mice; settings: Day 1 only, vehicle CMC + saline
Lewis Lung Carcinoma = Lewis Lung Carcinoma - Test 1 (ip, delayed therapy); format: in vivo, mice
L-1210 Leukemia = L-1210 Leukemia (Table VIII); settings: for Average Weight Change / Effect MST % T/C / MST Days / Survivors Day 5(30) / Average Weight Change,g: d.1
Procedure: The sodium and ammonium salts of the present invention were tested against transplantable mouse tumors as indicated below. The methodology used generally followed the protocols of the National Cancer Institute (Cancer Chemotherapy Rep., Part 3, 3, 1-103 (1972). The essential experimental details are given at the bottom of the following tables.

## [NH2][Pt]1([NH2])[O]C(=O)C(O)C(=O)[O]1 [2-Hydroxymalonato diammine platinum (II), 2-hydroxymalonato diammine platinum (II)]
B16 Melanoma [1]; 2 mg/kg/day ip
  Effect MST % T/C: 133 % T/C
  MST Days: 26.0 days
B16 Melanoma [1]; 4 mg/kg/day ip
  Effect MST % T/C: 187 % T/C
  MST Days: 36.5 days
B16 Melanoma [1]; 8 mg/kg/day ip
  Effect MST % T/C: 177 % T/C
  MST Days: 34.5 days
B16 Melanoma [1]; 16 mg/kg/day ip
  Effect MST % T/C: >308* % T/C
  MST Days: >60.0* Days
B16 Melanoma [1]; 24 mg/kg/day ip
  Effect MST % T/C: 54 % T/C
  MST Days: 10.5 days
B16 Melanoma [1]; 32 mg/kg/day ip
  Effect MST % T/C: 38 % T/C
  MST Days: 7.5 days
B16 Melanoma [1]; ip B16, ip QD 1→9
  maximum T/C: > 308%
B16 Melanoma [2]; 8 mg/kg/inj ip
  Effect MST %TC: 131 %TC
  MST Days: 40.0 days
B16 Melanoma [2]; 12 mg/kg/inj ip
  Effect MST %TC: 115 %TC
  MST Days: 35.0 days
B16 Melanoma [2]; 16 mg/kg/inj ip
  Effect MST %TC: 48 %TC
  MST Days: 14.5 days
B16 Melanoma [2]; 24 mg/kg/inj ip
  Effect MST %TC: TOX
  MST Days: TOX
B16 Melanoma [2]; given ip, sc-implanted B16 melanoma
  T/C: 131%
L1210 Leukemia [3]; 20 mg/kg/day ip
  Effect MST % T/C: 143 % T/C
  MST Days: 10.0 days
L1210 Leukemia [3]; 40 mg/kg/day ip
  Effect MST % T/C: 143 % T/C
  MST Days: 10.0 days
L1210 Leukemia [3]; 60 mg/kg/day ip
  Effect MST % T/C: 157 % T/C
  MST Days: 11.0 days
L1210 Leukemia [3]; 80 mg/kg/day ip
  Effect MST % T/C: 171 % T/C
  MST Days: 12.0 days
B16 Melanoma [4]; 2 mg/kg/day ip
  Average Weight Change: -1.1 g
  Effect MST % T/C: 182 % T/C
  MST Days: 37.5 days
B16 Melanoma [4]; 4 mg/kg/day ip
  Average Weight Change: -1.1 g
  Effect MST % T/C: 163 % T/C
  MST Days: 33.5 days
B16 Melanoma [4]; 8 mg/kg/day ip
  Average Weight Change: -2.1 g
  Effect MST % T/C: 190 % T/C
  MST Days: 39.0 days
B16 Melanoma [4]; 16 mg/kg/day ip
  Average Weight Change: -2.3 g
  Effect MST % T/C: >293^a % T/C
  MST Days: >60.0^a Days
L1210 Leukemia [5]; 40 mg/kg ip
  Effect MST % T/C: 114 % T/C
  MST Days: 8.0 days
L1210 Leukemia [5]; 60 mg/kg ip
  Effect MST % T/C: 143 % T/C
  MST Days: 10.0 days
L1210 Leukemia [5]; 80 mg/kg ip
  Effect MST % T/C: 129 % T/C
  MST Days: 9.0 days
L1210 Leukemia [5]; 100 mg/kg ip
  Effect MST % T/C: 100 % T/C
  MST Days: 7.0 days
Lewis Lung Carcinoma; 8 mg/kg/inj ip, qd 5→13
  Effect MST %TC: 112 %TC
  MST Days: 14.0 days
Lewis Lung Carcinoma; 12 mg/kg/inj ip, qd 5→13
  Effect MST %TC: 168 %TC
  MST Days: 21.0 days
Lewis Lung Carcinoma; 16 mg/kg/inj ip, qd 5→13
  Effect MST %TC: 176 %TC
  MST Days: 22.0 days
Lewis Lung Carcinoma; 20 mg/kg/inj ip, d. 5,9&13
  Effect MST %TC: 100 %TC
  MST Days: 12.5 days
Lewis Lung Carcinoma; 24 mg/kg/inj ip, qd 5→13
  Effect MST %TC: 220 %TC
  MST Days: 27.5 days
Lewis Lung Carcinoma; 40 mg/kg/inj ip, d. 5,9&13
  Effect MST %TC: 120 %TC
  MST Days: 15.0 days
Lewis Lung Carcinoma; 60 mg/kg/inj ip, d. 5,9&13
  Effect MST %TC: 156 %TC
  MST Days: 19.5 days
Lewis Lung Carcinoma; 80 mg/kg/inj ip, d. 5,9&13
  Effect MST %TC: 152 %TC
  MST Days: 19.0 days
Lewis Lung Carcinoma; Day 48 (figure in parentheses), 60 mg/kg/inj ip, d. 5,9&13
  Survivors Day 9(48): 1
Lewis Lung Carcinoma; given ip, therapy from day 5
  maximum T/C: 220%
Lewis Lung Carcinoma; mouse, in vivo, ip, 8 mg/kg
  Survivors Day 9(48): 6/6
Lewis Lung Carcinoma; mouse, in vivo, ip, 12 mg/kg
  Survivors Day 9(48): 6/6
Lewis Lung Carcinoma; mouse, in vivo, ip, 16 mg/kg
  Survivors Day 9(48): 6/6
Lewis Lung Carcinoma; mouse, in vivo, ip, 20 mg/kg
  Survivors Day 9(48): 6/6
Lewis Lung Carcinoma; mouse, in vivo, ip, 24 mg/kg
  Survivors Day 9(48): 6/6
Lewis Lung Carcinoma; mouse, in vivo, ip, 40 mg/kg
  Survivors Day 9(48): 6/6
Lewis Lung Carcinoma; mouse, in vivo, ip, 60 mg/kg
  Survivors Day 9(48): 6/6
Lewis Lung Carcinoma; mouse, in vivo, ip, 80 mg/kg
  Survivors Day 9(48): 6/6

## O=C1[O][Pt]2([NH]C3CCCCC3[NH]2)[O]C(=O)C1O (centres unmarked) [2-hydroxymalonato(1,2-diaminocyclohexane)platinum (II)]
L-1210 Leukemia; 25 mg/kg/inj ip
  Average Weight Change: -0.3 g
  Effect MST % T/C: 142 % T/C
  MST Days: 8.5 days
  Survivors Day 5(30): 6/6
L-1210 Leukemia; 50 mg/kg/inj ip
  Average Weight Change,g: +0.1 g
  Effect MST % T/C: 150 % T/C
  MST Days: 9.0 days
  Survivors Day 5(30): 6/6
L-1210 Leukemia; 100 mg/kg/inj ip
  Average Weight Change: -1.5 g
  Effect MST % T/C: 183 % T/C
  MST Days: 11.0 days
  Survivors Day 5(30): 6/6
L-1210 Leukemia; 200 mg/kg, single ip injection
  lethality: lethal
L-1210 Leukemia; 200 mg/kg/inj ip
  Average Weight Change,g: TOX
  Effect MST % T/C: TOX
  MST Days: TOX
  Survivors Day 5(30): 0/6
L-1210 Leukemia; single ip injections
  maximum T/C: 183%
L-1210 Leukemia; single ip injections, dose of maximum T/C
  optimal doses: 100 mg/kg
